Assays:
[1] = system: patient-derived Meso84 cell line (sarcomatoid MPM); assay: MTT cytotoxicity assay, 72 h, Meso84; type: cell-based, human; conditions: exposure time 72 h
BALB/c mice = conditions: i.p., 12 injections, 5F 2.5 mg/kg
[2] = system: patient-derived VMC23 cell line (epithelioid MPM); assay: MTT cytotoxicity assay, 72 h, VMC23; type: cell-based, human; conditions: exposure time 72 h
Text: (§1) Human malignant mesothelioma cancer cell lines JU77 and LO68 were obtained from Cell Bank Australia (Children's Medical Research Institute, Westmead, Australia). Mouse malignant mesothelioma cancer cell line AB12, human nonmalignant mesothelioma cancer cell line Met5A (mesothelial cells), mouse macrophage cell line J774 and human monocytic cell line THP-1 were obtained from American Type Culture Collection (ATCC) (Rockville, MD, USA). Human malignant mesothelioma cell lines VMC23 (epithelial), Meso82 (sarcomatous), Meso92 (biphasic), were kindly provided by Prof. Walter Berger (Medical University of Vienna). All cells except for J774 were cultured in RPMI and J774 cells were cultured in DMEM. Both types of media were supplemented with 10% FBS and 1% penicillin-streptomycin (10,000 U/mL). Cells were grown in tissue culture flasks (75 cm2 and 25 cm2, SPL Life Sciences Co., Ltd., Korea). All cell lines were grown at 37 °C in a humidified atmosphere of 95% air and 5% CO 2 and passaged when they reached 80–90% confluency. All Au stock solutions were prepared in 1% DMSO in the respected medium, ensuring that cell viability was not inhibited.
(§2) The cytotoxicity of compounds was determined using an MTT colorimetric test. The cells were harvested from culture flasks by trypsinization and seeded into Cellstar 96 -well microculture plates (Greiner Bio -One) at the seeding density of 6000 cells per well (6 × 10^4 cells/mL). After
(§3) the cells were allowed to resume exponential growth for 16 h, they were exposed to drugs at
(§4) different concentrations in media for 72 h. The drugs were diluted in a complete medium at the desired concentration added to each well (100 μL) and serially diluted in other wells. After exposure for 72 h, the media was replaced with MTT in media (5 mg/mL, 100 μL/well) and
(§5) incubated for an additional 50 min. Subsequently, the medium was aspirated, and the purple formazan crystals formed in viable cells were dissolved in DMSO (100 μL/well). Optical densities were measured at 570 nm using a BioTek Synergy H1 microplate and MultiskanTM SkyHigh plate readers. The quantity of viable cells was expressed in terms of treated/control (T/C) values in comparison to untreated control cells, and 50% inhibitory concentrations (IC 50) were calculated from concentration-effect curves by interpolation. An evaluation was based on means from at least three independent experiments, each comprising three replicat es per
(§6) DMSO had not impact on the cell viability at the concentrations used.

[3] = system: human malignant mesothelioma cell line JU77; assay: MTT cytotoxicity assay, 72 h, JU77; type: cell-based; conditions: exposure time 72 h
Text: as §1, §2, §3, §4, §5, §6

[4] = system: patient-derived Meso92 cell line (biphasic MPM); assay: MTT cytotoxicity assay, 72 h, Meso92; type: cell-based, human; conditions: exposure time 72 h
[5] = system: murine malignant mesothelioma cell line AB12; assay: MTT cytotoxicity assay, 72 h, AB12; type: cell-based, mouse; conditions: exposure time 72 h
[6] = system: human malignant mesothelioma cell line LO68; assay: MTT cytotoxicity assay, 72 h, LO68; type: cell-based; conditions: exposure time 72 h
[7] = system: human nonmalignant mesothelioma cell line Met5A; assay: MTT cytotoxicity assay, 72 h, Met5A; type: cell-based; conditions: exposure time 72 h

## F[P-](F)(F)(F)(F)F.c1cc[c]2c(c1)Nc1cccc[n+]1[Au-]21[S]C(=[N+]2CCCCC2)[S]1 (stereo not drawn) [5H]
[1]
  IC50: 100 ± 20 nM
BALB/c mice; 5A and 5H 4 mg/kg
  signs of toxicity, daily injections: led to toxicity in mice
BALB/c mice; 5H 4 mg/kg
  deaths, daily injections: death of two mice
[2]
  IC50: 940 ± 270 nM
[3]
  IC50: 400 ± 90 nM
[4]
  IC50: 820 ± 180 nM
[5]
  IC50: 100 ± 10 nM
[6]
  IC50: 440 ± 90 nM
[7]
  IC50: 130 ± 10 nM
